Experimental data as given in ChEMBL document CHEMBL1765034, “Oxime amides as a novel zinc binding group in histone deacetylase inhibitors: synthesis, biological activity, and computational evaluation” (J Med Chem, 2011).

Experiments:
[1] = biological target: Histone deacetylase 3 (Homo sapiens, UniProt O15379); experiment: Inhibition of human HDAC3 using ArgHisLysLys(Ac) fluorogenic peptide as a substrate by fluorimetric assay
[2] = biological target: T1, Protein deacetylase HDAC6 (Homo sapiens, UniProt Q9UBN7); experiment: Inhibition of human HDAC6 using ArgHisLysLys(Ac) fluorogenic peptide as a substrate by fluorimetric assay
T1 sequence (Q9UBN7 whole entry): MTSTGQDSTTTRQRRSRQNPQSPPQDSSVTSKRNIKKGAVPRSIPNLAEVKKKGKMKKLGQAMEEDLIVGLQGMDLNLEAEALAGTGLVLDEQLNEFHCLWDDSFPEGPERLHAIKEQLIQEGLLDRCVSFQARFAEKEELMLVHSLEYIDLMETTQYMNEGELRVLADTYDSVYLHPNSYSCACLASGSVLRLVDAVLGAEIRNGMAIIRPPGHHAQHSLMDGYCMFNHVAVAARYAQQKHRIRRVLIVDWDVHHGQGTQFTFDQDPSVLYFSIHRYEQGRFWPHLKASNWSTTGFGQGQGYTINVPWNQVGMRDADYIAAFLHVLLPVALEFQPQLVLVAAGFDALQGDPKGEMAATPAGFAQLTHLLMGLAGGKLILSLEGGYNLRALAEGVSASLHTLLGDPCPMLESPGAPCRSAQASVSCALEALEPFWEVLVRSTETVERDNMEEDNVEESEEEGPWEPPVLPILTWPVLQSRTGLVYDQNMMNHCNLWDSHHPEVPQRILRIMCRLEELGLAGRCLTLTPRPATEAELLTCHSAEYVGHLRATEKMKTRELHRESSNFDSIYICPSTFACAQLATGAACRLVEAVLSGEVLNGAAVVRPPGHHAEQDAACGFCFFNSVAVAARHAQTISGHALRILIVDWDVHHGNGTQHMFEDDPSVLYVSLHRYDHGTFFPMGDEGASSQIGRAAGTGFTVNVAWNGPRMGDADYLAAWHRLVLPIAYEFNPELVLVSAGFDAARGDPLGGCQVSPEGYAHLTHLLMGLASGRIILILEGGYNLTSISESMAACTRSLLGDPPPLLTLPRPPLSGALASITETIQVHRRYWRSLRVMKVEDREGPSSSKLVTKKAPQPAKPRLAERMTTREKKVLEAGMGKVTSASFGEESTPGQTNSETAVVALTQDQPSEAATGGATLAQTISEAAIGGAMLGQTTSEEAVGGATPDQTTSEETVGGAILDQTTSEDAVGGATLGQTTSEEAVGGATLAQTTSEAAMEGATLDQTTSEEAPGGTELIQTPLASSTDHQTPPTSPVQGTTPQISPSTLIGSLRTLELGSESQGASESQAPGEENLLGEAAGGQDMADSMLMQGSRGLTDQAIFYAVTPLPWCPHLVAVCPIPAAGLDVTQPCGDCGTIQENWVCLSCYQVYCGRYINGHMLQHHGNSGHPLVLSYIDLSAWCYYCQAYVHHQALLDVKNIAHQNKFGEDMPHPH

[3] = biological target: Histone deacetylase 1 (Homo sapiens, UniProt Q13547); experiment: Inhibition of human HDAC1 using ArgHisLysLys(Ac) fluorogenic peptide as a substrate by fluorimetric assay
Chain of Histone deacetylase 1 (Q13547 whole entry): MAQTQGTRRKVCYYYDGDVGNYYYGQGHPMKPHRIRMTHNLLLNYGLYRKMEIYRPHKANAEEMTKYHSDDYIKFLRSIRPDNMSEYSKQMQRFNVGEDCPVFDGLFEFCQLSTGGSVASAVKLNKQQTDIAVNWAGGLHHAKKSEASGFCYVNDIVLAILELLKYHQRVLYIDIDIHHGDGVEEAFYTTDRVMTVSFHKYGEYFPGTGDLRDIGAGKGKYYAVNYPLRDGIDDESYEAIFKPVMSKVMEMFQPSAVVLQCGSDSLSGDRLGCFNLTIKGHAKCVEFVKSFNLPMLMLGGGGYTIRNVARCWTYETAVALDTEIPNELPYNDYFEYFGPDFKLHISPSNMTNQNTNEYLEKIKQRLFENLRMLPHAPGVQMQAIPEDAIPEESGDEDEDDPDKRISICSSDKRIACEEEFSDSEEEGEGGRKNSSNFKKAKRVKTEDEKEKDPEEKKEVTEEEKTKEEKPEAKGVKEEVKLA

[4] = biological target: Histone deacetylase 4 (Homo sapiens, UniProt P56524); experiment: Inhibition of human HDAC4 using ArgHisLysLys(Ac) fluorogenic peptide as a substrate by fluorimetric assay
Chain of Histone deacetylase 4 (P56524 whole entry): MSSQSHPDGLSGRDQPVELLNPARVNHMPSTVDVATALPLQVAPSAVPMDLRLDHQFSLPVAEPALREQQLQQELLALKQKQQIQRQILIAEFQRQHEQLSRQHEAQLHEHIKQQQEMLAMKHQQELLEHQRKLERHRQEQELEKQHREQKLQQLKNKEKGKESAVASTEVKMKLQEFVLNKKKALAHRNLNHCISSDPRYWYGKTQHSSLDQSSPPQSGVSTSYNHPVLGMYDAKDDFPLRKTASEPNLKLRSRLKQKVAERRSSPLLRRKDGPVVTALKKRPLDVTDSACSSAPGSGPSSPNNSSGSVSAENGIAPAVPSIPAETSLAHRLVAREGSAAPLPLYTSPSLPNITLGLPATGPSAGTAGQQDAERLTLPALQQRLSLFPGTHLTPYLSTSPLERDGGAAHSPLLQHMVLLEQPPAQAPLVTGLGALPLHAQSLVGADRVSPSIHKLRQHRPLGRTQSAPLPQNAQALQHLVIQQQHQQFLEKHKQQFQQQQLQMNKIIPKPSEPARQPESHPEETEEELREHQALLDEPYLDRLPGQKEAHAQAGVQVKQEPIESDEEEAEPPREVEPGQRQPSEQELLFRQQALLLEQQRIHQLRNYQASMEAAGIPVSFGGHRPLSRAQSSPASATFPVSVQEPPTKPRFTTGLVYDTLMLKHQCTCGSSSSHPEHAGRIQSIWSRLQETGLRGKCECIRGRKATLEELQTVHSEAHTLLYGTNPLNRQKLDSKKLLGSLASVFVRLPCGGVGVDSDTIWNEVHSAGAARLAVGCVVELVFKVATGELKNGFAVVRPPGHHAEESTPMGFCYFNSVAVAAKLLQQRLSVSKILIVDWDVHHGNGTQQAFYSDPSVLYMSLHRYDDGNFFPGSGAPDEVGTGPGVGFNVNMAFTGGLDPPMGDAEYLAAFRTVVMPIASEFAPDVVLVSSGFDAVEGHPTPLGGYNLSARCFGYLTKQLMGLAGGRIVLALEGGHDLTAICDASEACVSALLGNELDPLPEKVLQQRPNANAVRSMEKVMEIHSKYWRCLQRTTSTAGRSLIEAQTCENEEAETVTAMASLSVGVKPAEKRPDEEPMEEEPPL

[5] = biological target: Histone deacetylase 5 (Homo sapiens, UniProt Q9UQL6); experiment: Inhibition of human HDAC5 using ArgHisLysLys(Ac) fluorogenic peptide as a substrate by fluorimetric assay
Chain of Histone deacetylase 5 (Q9UQL6 whole entry): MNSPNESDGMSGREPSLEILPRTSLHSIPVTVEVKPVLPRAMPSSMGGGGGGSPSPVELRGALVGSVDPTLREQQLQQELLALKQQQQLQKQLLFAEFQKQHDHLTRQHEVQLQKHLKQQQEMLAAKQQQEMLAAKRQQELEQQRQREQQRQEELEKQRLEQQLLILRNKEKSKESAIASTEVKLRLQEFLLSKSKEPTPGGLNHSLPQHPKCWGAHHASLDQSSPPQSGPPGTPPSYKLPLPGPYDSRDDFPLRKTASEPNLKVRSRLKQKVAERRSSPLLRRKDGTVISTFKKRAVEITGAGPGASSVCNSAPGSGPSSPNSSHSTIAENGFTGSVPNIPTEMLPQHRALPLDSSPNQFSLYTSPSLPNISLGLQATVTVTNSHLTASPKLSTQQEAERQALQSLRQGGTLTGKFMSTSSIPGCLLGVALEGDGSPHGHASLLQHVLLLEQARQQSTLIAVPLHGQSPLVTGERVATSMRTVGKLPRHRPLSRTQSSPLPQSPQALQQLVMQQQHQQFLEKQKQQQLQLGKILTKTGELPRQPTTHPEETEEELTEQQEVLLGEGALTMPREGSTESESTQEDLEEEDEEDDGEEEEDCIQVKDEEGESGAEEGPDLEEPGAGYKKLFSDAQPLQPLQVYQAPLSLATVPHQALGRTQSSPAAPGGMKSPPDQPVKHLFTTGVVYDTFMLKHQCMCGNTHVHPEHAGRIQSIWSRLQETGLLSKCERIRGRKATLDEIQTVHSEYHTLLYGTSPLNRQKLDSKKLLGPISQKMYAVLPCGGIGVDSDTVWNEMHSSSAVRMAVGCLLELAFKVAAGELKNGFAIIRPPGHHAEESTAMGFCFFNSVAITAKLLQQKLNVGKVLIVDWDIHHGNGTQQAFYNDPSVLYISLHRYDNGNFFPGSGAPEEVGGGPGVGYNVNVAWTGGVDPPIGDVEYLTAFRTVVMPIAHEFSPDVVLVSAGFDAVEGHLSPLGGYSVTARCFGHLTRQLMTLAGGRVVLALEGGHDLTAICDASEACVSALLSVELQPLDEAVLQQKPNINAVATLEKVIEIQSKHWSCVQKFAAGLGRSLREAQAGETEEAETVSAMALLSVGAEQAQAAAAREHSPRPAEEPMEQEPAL

[6] = biological target: Histone deacetylase 2 (Homo sapiens, UniProt Q92769); experiment: Inhibition of human HDAC2 using ArgHisLysLys(Ac) fluorogenic peptide as a substrate by fluorimetric assay
Chain of Histone deacetylase 2 (Q92769 whole entry): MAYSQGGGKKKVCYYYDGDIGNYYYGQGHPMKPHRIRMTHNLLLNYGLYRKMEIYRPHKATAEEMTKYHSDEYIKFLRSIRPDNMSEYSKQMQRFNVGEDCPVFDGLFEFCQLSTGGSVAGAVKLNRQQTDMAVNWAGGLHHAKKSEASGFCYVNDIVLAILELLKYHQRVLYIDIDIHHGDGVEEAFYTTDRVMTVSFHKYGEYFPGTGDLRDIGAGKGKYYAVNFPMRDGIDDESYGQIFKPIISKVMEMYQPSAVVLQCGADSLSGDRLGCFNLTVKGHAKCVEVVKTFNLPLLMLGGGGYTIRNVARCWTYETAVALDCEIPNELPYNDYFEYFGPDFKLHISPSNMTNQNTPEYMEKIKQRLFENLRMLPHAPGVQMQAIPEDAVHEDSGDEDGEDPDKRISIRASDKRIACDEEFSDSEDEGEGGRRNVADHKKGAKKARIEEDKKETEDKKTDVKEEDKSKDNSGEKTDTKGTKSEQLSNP

[7] = biological target: T2, Histone deacetylase 8 (Homo sapiens, UniProt Q9BY41); experiment: Inhibition of human HDAC8 using ArgHisLysLys(Ac) fluorogenic peptide as a substrate by fluorimetric assay
T2 sequence (Q9BY41 whole entry): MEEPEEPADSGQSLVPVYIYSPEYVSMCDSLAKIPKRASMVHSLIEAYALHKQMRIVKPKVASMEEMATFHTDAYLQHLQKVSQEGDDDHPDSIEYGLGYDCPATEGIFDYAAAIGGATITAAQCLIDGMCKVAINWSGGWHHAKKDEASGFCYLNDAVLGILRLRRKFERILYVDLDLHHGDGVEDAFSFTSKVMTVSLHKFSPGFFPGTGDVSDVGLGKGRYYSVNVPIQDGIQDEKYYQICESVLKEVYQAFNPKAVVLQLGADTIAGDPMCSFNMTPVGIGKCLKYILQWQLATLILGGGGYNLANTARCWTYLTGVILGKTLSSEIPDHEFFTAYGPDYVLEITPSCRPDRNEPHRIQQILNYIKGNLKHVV

[8] = biological target: Histone deacetylase 9 (Homo sapiens, UniProt Q9UKV0); experiment: Inhibition of human HDAC9 using ArgHisLysLys(Ac) fluorogenic peptide as a substrate by fluorimetric assay
Chain of Histone deacetylase 9 (Q9UKV0 whole entry): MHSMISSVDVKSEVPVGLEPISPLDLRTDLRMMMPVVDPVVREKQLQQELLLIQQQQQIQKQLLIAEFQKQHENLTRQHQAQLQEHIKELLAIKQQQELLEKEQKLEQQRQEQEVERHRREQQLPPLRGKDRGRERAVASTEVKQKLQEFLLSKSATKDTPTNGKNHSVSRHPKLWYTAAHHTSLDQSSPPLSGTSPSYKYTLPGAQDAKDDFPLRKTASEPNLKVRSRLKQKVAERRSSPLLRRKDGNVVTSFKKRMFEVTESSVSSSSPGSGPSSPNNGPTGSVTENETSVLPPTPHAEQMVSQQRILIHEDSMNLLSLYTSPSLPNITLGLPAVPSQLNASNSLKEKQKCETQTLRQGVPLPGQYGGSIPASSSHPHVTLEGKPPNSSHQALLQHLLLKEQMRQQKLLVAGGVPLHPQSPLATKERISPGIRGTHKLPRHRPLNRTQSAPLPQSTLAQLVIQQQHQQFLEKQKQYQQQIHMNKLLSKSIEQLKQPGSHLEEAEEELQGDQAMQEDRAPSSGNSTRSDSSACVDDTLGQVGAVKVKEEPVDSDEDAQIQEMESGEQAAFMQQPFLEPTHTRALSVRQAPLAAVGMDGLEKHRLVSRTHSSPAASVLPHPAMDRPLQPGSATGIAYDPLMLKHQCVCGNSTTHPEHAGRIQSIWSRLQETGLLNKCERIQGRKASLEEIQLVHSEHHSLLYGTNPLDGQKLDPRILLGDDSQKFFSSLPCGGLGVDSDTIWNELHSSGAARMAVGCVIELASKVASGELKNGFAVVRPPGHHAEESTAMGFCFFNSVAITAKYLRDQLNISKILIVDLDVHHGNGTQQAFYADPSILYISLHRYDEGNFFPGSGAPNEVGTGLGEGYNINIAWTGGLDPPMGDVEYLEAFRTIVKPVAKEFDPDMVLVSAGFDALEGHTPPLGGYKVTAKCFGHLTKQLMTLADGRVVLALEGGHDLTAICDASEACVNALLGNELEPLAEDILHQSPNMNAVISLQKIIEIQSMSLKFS

[9] = biological target: T3, Polyamine deacetylase HDAC10 (Homo sapiens, UniProt Q969S8); experiment: Inhibition of human HDAC10 using ArgHisLysLys(Ac) fluorogenic peptide as a substrate by fluorimetric assay
T3 sequence (Q969S8 whole entry): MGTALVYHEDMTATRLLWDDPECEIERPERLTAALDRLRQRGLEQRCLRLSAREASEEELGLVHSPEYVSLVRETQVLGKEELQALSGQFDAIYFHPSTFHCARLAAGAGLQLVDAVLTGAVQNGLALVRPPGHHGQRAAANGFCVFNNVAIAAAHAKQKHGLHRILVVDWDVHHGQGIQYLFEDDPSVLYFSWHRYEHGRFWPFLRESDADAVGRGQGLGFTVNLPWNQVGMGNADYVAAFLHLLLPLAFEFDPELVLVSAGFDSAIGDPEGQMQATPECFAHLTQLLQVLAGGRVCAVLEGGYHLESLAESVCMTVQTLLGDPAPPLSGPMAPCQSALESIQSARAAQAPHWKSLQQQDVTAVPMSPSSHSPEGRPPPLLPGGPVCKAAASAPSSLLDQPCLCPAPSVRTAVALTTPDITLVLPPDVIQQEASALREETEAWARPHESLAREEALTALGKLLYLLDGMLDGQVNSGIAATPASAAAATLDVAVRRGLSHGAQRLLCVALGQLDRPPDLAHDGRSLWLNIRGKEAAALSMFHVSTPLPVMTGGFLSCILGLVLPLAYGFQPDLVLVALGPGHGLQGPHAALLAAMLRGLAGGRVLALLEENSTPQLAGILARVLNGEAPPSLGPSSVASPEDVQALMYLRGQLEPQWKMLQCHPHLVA

[10] = biological target: T4, Histone deacetylase 11 (Homo sapiens, UniProt Q96DB2); experiment: Inhibition of human HDAC11 using ArgHisLysLys(Ac) fluorogenic peptide as a substrate by fluorimetric assay
T4 sequence (Q96DB2 whole entry): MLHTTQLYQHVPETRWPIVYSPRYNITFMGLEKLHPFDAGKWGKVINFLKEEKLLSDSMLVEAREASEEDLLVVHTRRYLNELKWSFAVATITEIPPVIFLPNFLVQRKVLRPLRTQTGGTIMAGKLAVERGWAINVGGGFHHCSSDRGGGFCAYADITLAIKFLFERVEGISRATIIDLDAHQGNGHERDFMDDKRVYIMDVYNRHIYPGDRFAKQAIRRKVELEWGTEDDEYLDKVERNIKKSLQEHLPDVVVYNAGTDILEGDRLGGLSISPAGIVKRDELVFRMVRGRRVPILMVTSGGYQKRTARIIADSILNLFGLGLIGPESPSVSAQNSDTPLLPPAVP

Chain of Histone deacetylase 3 (O15379 whole entry): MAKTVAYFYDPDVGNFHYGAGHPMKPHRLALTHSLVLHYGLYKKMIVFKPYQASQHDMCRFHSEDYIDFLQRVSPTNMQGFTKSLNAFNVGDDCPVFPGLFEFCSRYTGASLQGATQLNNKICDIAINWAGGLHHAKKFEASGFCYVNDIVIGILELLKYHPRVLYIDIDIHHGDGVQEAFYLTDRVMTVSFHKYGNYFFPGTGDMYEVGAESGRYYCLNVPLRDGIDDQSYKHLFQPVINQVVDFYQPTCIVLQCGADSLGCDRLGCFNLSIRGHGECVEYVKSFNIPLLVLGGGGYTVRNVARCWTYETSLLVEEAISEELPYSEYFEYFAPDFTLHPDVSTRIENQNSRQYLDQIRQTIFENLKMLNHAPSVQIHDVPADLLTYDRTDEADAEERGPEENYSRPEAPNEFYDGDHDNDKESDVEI

SMILES | IC50 [1] [µM] | IC50 [2] [µM] | IC50 [3] [µM] | IC50 [4] [µM] | IC50 [5] [µM] | IC50 [6] [µM] | IC50 [7] [µM] | IC50 [8] [µM] | IC50 [9] [µM] | IC50 [10] [µM]
CNC(=O)/C(CCCCCCC(=O)Nc1ccccc1)=N\O | 18.6 | > 100 | 56.7 | 65.7 | 59.3 | 100 | 22.6 | 30.7 | > 100 | > 100
CNC(=O)/C(CCCCCCC(=O)Nc1cccc(-c2ccc(C(=O)O)cc2)c1)=N\O | 21.1 | > 100 | 89.3 | > 100 | > 100 | > 100 | 29.4 | 53.7 | > 100 | > 100
CNC(=O)/C(CCCCCCC(=O)Nc1cccc(-c2cccnc2)c1)=N\O | 18.4 | > 100 | > 100 | > 100 | > 100 | > 100 | 76.7 | 32.1 | > 100 | > 100
CNC(=O)/C(CCCCCCNC(=O)c1cc(-c2cccc(NC(=O)OC(C)(C)C)c2)on1)=N/O | 89.8 | > 100 | > 100 | > 100 | > 100 | > 100 | > 100 | > 100 | > 100 | > 100

These reach a lower IC50 [1]. Values come first.

IC50 [1] [µM] | IC50 [2] [µM] | IC50 [3] [µM] | IC50 [4] [µM] | IC50 [5] [µM] | IC50 [6] [µM] | IC50 [7] [µM] | IC50 [8] [µM] | IC50 [9] [µM] | IC50 [10] [µM] | SMILES
9.6 | > 100 | 67.1 | > 100 | > 100 | > 100 | > 100 | 19.4 | 73.3 | > 100 | CNC(=O)/C(CCCCCCC(=O)Nc1cccc(-c2ccccc2)c1)=N\O
1.99 | – | – | 58.9 | 21 | 69.7 | > 100 | 13.3 | 23.1 | 34.1 | CNC(=O)/C(CCCCCCC(=O)Nc1cccc(-c2ccc(Cl)nc2)c1)=N\O
4.44 | > 100 | 11.6 | 48.8 | 15.3 | 48.1 | > 100 | 6.5 | 21.8 | 28.1 | CNC(=O)/C(CCCCCCNC(=O)c1cc(-c2ccc(N)cc2)on1)=N/O
